Measured values taken from US20200339691A1, “PROTEINACEOUS MOLECULES AND USES THEREFOR” (priority 2018, published 2020).
Where a SMILES comes first, the peptide text is derived from it. The star is where a group is joined. Myristoyl = CCCCCCCCCCCCCC(=O)*

Tests used:
[1] = tested on: CD44^hiCD24^lo CSCs in MDA-MB-231 cells; experiment: FACS analysis of CD44^hiCD24^lo cancer stem cells in MDA-MB-231 cells treated with P1 analogues; format: cell-based, human; settings: 50 μM peptide, 48 hours; for CD44^hiCD24^lo CSCs (%) / COI, Live Single CD44^hiCD24^lo CSCs (Cell Count): n = 1; for Average Inhibition of CSCs (%) / CD44^hiCD24^lo CSCs (%) Repeat 1 / CD44^hiCD24^lo CSCs (%) Repeat 2 / CD44^hiCD24^lo CSCs (%) Repeat 3: n = 3
Method: Analogues of P1 (Table 6) were designed and synthesized in accordance with the procedure of Example 5. The ability of these analogues to inhibit cancer stem cells was determined using FACS analysis on MDA-MB-231 cells, which constitutively contain approximately 90% CD44^hiCD24^lo cancer stem cells, treated with the peptides.
(§1) Non-adherent cells were removed during the washing steps.

MDA-MB-231 cells = format: cell-based, human; settings: 50 μM peptide, 48 hours, n = 1
From the text: as §1
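Wherever COI, Live Single Cells (Cell Count) is given: live means Hoechst-negative events among single cells.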

`CCCCCCCCCCCCCC(=O)N[C@@H](CC(C)C)C(=O)N[C@H](C(=O)N[C@@H](Cc1ccccc1)C(=O)N[C@H](C(=O)N[C@@H](Cc1ccccc1)C(=O)N[C@@H](CCCNC(=N)N)C(=O)N[C@@H](CC(C)C)C(=O)N[C@@H](CCCNC(=N)N)C(=O)N[C@@H](CCCCN)C(=O)NCC(=O)N[C@H](C(=O)N[C@@H](CCSC)C(=O)N[C@@H](CCSC)C(=O)N[C@@H](CC(=O)O)C(=O)N[C@H](C(=O)N[C@@H](CCCCN)C(=O)N[C@@H](CCCCN)C(N)=O)C(C)C)C(C)C)[C@@H](C)CC)[C@@H](C)O` [Peptide 2853831, Myristoyl-LTFIFRLRKGVMMDVKK-NH2] (Myristoyl-LTFIFRLRKGVMMDVKK-NH2) was tested, and the “Inhibition of CSCs (%) Repeat 1” value [1] was 79.77%, the “Inhibition of CSCs (%) Repeat 2” value [1] was 84.29% and the “Inhibition of CSCs (%) Repeat 3” value [1] was 89.06%. The “CD44^hiCD24^lo CSCs (%)” value [1] was 11.83%, the “COI, Live Single CD44^hiCD24^lo CSCs (Cell Count)” value [1] was 11 and the “Average Inhibition of CSCs (%)” value [1] was 84.37%. For the same molecule, the “CD44^hiCD24^lo CSCs (%) Repeat 1” value [1] was 18.13%, the “CD44^hiCD24^lo CSCs (%) Repeat 2” value [1] was 14.09% and the “CD44^hiCD24^lo CSCs (%) Repeat 3” value [1] was 9.82%. For the same molecule, the “COI (Cell Count)” value (MDA-MB-231 cells) was 377, the “COI, Live Single Cells (Cell Count)” value (MDA-MB-231 cells) was 93 and the “COI, Single (Cell Count)” value (MDA-MB-231 cells) was 280. For the same molecule, the “Total Cell Count” value (MDA-MB-231 cells) was 10000.

For `CCCCCCCCCCCCCC(=O)N[C@@H](CC(C)C)C(=O)N[C@H](C(=O)N[C@@H](Cc1ccccc1)C(=O)N[C@H](C(=O)N[C@@H](Cc1ccccc1)C(=O)N[C@@H](CCCNC(=N)N)C(=O)N[C@@H](CC(C)C)C(=O)N[C@@H](CCCNC(=N)N)C(=O)N[C@@H](CCCCN)C(=O)NCC(=O)N[C@@H](CCCNC(=N)N)C(=O)N[C@@H](CCC(=O)O)C(=O)N[C@@H](CCSC)C(=O)N[C@@H](CC(=O)O)C(=O)N[C@H](C(=O)N[C@@H](CCCCN)C(=O)N[C@@H](CCCCN)C(N)=O)C(C)C)[C@@H](C)CC)[C@@H](C)O` [Peptide 2853832, Myristoyl-LTFIFRLRKGREMDVKK-NH2] (Myristoyl-LTFIFRLRKGREMDVKK-NH2), the “Inhibition of CSCs (%) Repeat 1” value [1] was 93.78%, the “Inhibition of CSCs (%) Repeat 2” value [1] was 94.44% and the “Inhibition of CSCs (%) Repeat 3” value [1] was 94.90%. For the same molecule, the “CD44^hiCD24^lo CSCs (%)” value [1] was 2.48%, the “COI, Live Single CD44^hiCD24^lo CSCs (Cell Count)” value [1] was 11 and the “Average Inhibition of CSCs (%)” value [1] was 94.37%. For the same molecule, the “CD44^hiCD24^lo CSCs (%) Repeat 1” value [1] was 5.58%, the “CD44^hiCD24^lo CSCs (%) Repeat 2” value [1] was 4.99% and the “CD44^hiCD24^lo CSCs (%) Repeat 3” value [1] was 4.58%. For the same molecule, the “COI (Cell Count)” value (MDA-MB-231 cells) was 674, the “COI, Live Single Cells (Cell Count)” value (MDA-MB-231 cells) was 444 and the “COI, Single (Cell Count)” value (MDA-MB-231 cells) was 515. The “Total Cell Count” value (MDA-MB-231 cells) was 2068.

For `CCCCCCCCCCCCCC(=O)N[C@@H](CC(C)C)C(=O)N[C@H](C(=O)N[C@@H](Cc1ccccc1)C(=O)N[C@H](C(=O)N[C@@H](Cc1ccccc1)C(=O)N[C@@H](CCCNC(=N)N)C(=O)N[C@@H](CC(C)C)C(=O)N[C@@H](CCCNC(=N)N)C(=O)N[C@@H](CCCCN)C(=O)NCC(=O)N[C@@H](CCCNC(=N)N)C(=O)N[C@@H](CCCCN)C(=O)N[C@@H](CCSC)C(=O)N[C@@H](CC(=O)O)C(=O)N[C@H](C(=O)N[C@@H](CCCCN)C(=O)N[C@@H](CCCCN)C(N)=O)C(C)C)[C@@H](C)CC)[C@@H](C)O` [Peptide 2853833, Myristoyl-LTFIFRLRKGRKMDVKK-NH2] (Myristoyl-LTFIFRLRKGRKMDVKK-NH2), the “Inhibition of CSCs (%) Repeat 1” value [1] was 70.25%, the “Inhibition of CSCs (%) Repeat 2” value [1] was 75.23% and the “Inhibition of CSCs (%) Repeat 3” value [1] was 85.46%. The “CD44^hiCD24^lo CSCs (%)” value [1] was 12.50%, the “COI, Live Single CD44^hiCD24^lo CSCs (Cell Count)” value [1] was 9 and the “Average Inhibition of CSCs (%)” value [1] was 76.98%. For the same molecule, the “CD44^hiCD24^lo CSCs (%) Repeat 1” value [1] was 26.67%, the “CD44^hiCD24^lo CSCs (%) Repeat 2” value [1] was 22.22% and the “CD44^hiCD24^lo CSCs (%) Repeat 3” value [1] was 13.04%. For the same molecule, the “COI (Cell Count)” value (MDA-MB-231 cells) was 495, the “COI, Live Single Cells (Cell Count)” value (MDA-MB-231 cells) was 72 and the “COI, Single (Cell Count)” value (MDA-MB-231 cells) was 363. The “Total Cell Count” value (MDA-MB-231 cells) was 4559.

`CCCCCCCCCCCCCC(=O)N[C@@H](CC(C)C)C(=O)N[C@H](C(=O)N[C@@H](Cc1ccccc1)C(=O)N[C@H](C(=O)N[C@@H](Cc1ccccc1)C(=O)N[C@@H](CCCNC(=N)N)C(=O)N[C@@H](CC(C)C)C(=O)N[C@@H](CCCNC(=N)N)C(=O)N[C@@H](CCCCN)C(=O)NCC(=O)N[C@@H](CCCNC(=N)N)C(=O)N[C@@H](CCSC)C(=O)N[C@@H](CCC(=O)O)C(=O)N[C@@H](CC(=O)O)C(=O)N[C@H](C(=O)N[C@@H](CCCCN)C(=O)N[C@@H](CCCCN)C(N)=O)C(C)C)[C@@H](C)CC)[C@@H](C)O` [Peptide 2853834, Myristoyl-LTFIFRLRKGRMEDVKK-NH2] (Myristoyl-LTFIFRLRKGRMEDVKK-NH2) was tested, and the “Inhibition of CSCs (%) Repeat 1” value [1] was 91.98%, the “Inhibition of CSCs (%) Repeat 2” value [1] was 92.08% and the “Inhibition of CSCs (%) Repeat 3” value [1] was 92.04%. For the same molecule, the “CD44^hiCD24^lo CSCs (%)” value [1] was 5.76%, the “COI, Live Single CD44^hiCD24^lo CSCs (Cell Count)” value [1] was 22 and the “Average Inhibition of CSCs (%)” value [1] was 92.03%. The “CD44^hiCD24^lo CSCs (%) Repeat 1” value [1] was 7.18%, the “CD44^hiCD24^lo CSCs (%) Repeat 2” value [1] was 7.11% and the “CD44^hiCD24^lo CSCs (%) Repeat 3” value [1] was 7.14%. The “COI (Cell Count)” value (MDA-MB-231 cells) was 890, the “COI, Live Single Cells (Cell Count)” value (MDA-MB-231 cells) was 382 and the “COI, Single (Cell Count)” value (MDA-MB-231 cells) was 660. For the same molecule, the “Total Cell Count” value (MDA-MB-231 cells) was 4207.

`CCCCCCCCCCCCCC(=O)N[C@@H](CC(C)C)C(=O)N[C@H](C(=O)N[C@@H](Cc1ccccc1)C(=O)N[C@H](C(=O)N[C@@H](Cc1ccccc1)C(=O)N[C@@H](CCCNC(=N)N)C(=O)N[C@@H](CC(C)C)C(=O)N[C@@H](CCCNC(=N)N)C(=O)N[C@@H](CCCCN)C(=O)NCC(=O)N[C@@H](CCCNC(=N)N)C(=O)N[C@@H](CCSC)C(=O)N[C@@H](CCCCN)C(=O)N[C@@H](CC(=O)O)C(=O)N[C@H](C(=O)N[C@@H](CCCCN)C(=O)N[C@@H](CCCCN)C(N)=O)C(C)C)[C@@H](C)CC)[C@@H](C)O` [Peptide 2853835, Myristoyl-LTFIFRLRKGRMKDVKK-NH2] (Myristoyl-LTFIFRLRKGRMKDVKK-NH2) was tested, and the “Inhibition of CSCs (%) Repeat 1” value [1] was 90.70%, the “Inhibition of CSCs (%) Repeat 2” value [1] was 90.45% and the “Inhibition of CSCs (%) Repeat 3” value [1] was 89.87%. The “CD44^hiCD24^lo CSCs (%)” value [1] was 2.50%, the “COI, Live Single CD44^hiCD24^lo CSCs (Cell Count)” value [1] was 1 and the “Average Inhibition of CSCs (%)” value [1] was 90.34%. The “CD44^hiCD24^lo CSCs (%) Repeat 1” value [1] was 8.33%, the “CD44^hiCD24^lo CSCs (%) Repeat 2” value [1] was 8.57% and the “CD44^hiCD24^lo CSCs (%) Repeat 3” value [1] was 9.09%. The “COI (Cell Count)” value (MDA-MB-231 cells) was 1733, the “COI, Live Single Cells (Cell Count)” value (MDA-MB-231 cells) was 40 and the “COI, Single (Cell Count)” value (MDA-MB-231 cells) was 1292. For the same molecule, the “Total Cell Count” value (MDA-MB-231 cells) was 8580.

In the case of `CCCCCCCCCCCCCC(=O)N[C@@H](CC(C)C)C(=O)N[C@H](C(=O)N[C@@H](Cc1ccccc1)C(=O)N[C@H](C(=O)N[C@@H](Cc1ccccc1)C(=O)N[C@@H](CCCNC(=N)N)C(=O)N[C@@H](CC(C)C)C(=O)N[C@@H](CCCNC(=N)N)C(=O)N[C@@H](CCCCN)C(=O)NCC(=O)N[C@@H](CCCNC(=N)N)C(=O)N[C@@H](CCSC)C(=O)N[C@@H](CCSC)C(=O)N[C@@H](CCCCN)C(=O)N[C@H](C(=O)N[C@@H](CCCCN)C(=O)N[C@@H](CCCCN)C(N)=O)C(C)C)[C@@H](C)CC)[C@@H](C)O` [Peptide 2853836, Myristoyl-LTFIFRLRKGRMMKVKK-NH2] (Myristoyl-LTFIFRLRKGRMMKVKK-NH2), the “Inhibition of CSCs (%) Repeat 1” value [1] is reported as 88.84%, the “Inhibition of CSCs (%) Repeat 2” value [1] is reported as 82.17% and the “Inhibition of CSCs (%) Repeat 3” value [1] is reported as 86.35%. The “CD44^hiCD24^lo CSCs (%)” value [1] was 9.30%, the “COI, Live Single CD44^hiCD24^lo CSCs (Cell Count)” value [1] was 8 and the “Average Inhibition of CSCs (%)” value [1] was 85.79%. The “CD44^hiCD24^lo CSCs (%) Repeat 1” value [1] was 10.00%, the “CD44^hiCD24^lo CSCs (%) Repeat 2” value [1] was 16.00% and the “CD44^hiCD24^lo CSCs (%) Repeat 3” value [1] was 12.24%. The “COI (Cell Count)” value (MDA-MB-231 cells) was 761, the “COI, Live Single Cells (Cell Count)” value (MDA-MB-231 cells) was 86 and the “COI, Single (Cell Count)” value (MDA-MB-231 cells) was 547. For the same molecule, the “Total Cell Count” value (MDA-MB-231 cells) was 5448.
